{"source": "patent EP4817428A1", "about": "“SWEETNESS ENHANCER CONTAINING ERGOTHIONEINE AS ACTIVE INGREDIENT, AND FOOD OR BEVERAGE PRODUCT CONTAINING SAME” (Kikkoman Corporation, priority 2023, dated 2025)", "key": {"[1]": {"type": "in vivo", "details": "50% glucose solution", "experimental": "(§1) Evaluation results of sweetness of test product compared with control • ∘: Sweetness was enhanced compared to the control. • ◇: Sweetness was similar to that of the control.\nSamples ERG0 to 900 were prepared by adding ergothioneine to 50% glucose samples to final concentrations of 0.5 ppm, 1 ppm, 3 ppm, 5 ppm, 10 ppm, 20 ppm, 60 ppm, 100 ppm, 400 ppm, and 900 ppm (Table 4).\n(§2) Pairs combining a control 50% glucose sample to which ergothioneine was not added and a 50% glucose sample containing ergothioneine at each concentration were presented to the expert panel of four, and the panel evaluated which sample of the presented pair was perceived to be sweeter by a paired comparison test."}, "[2]": {"type": "in vivo", "description": "as §1, §2\nThe same test as in the 50% glucose solution of (1) described above was conducted on a 10% glucose solution using the samples (ERG0 to 20) shown in Table 6."}, "[3]": {"assay": "Test 7: sensory evaluation, selection of fructose sample of equivalent sweetness", "type": "in vivo", "details": "5% fructose sample containing 60 ppm ERG", "experimental": "Fructose was added to pure water to prepare fructose samples having six concentrations of 0%, 4.5%, 5%, 5.25%, 5.5%, and 6%; and as a seventh sample, a sample in which ergothioneine was added to 5% fructose to a final concentration of 60 ppm was prepared.\nSweetness was sensorially evaluated by the same expert panel of five trained sweetness-sensitive subjects as in Test 1. The panel of five experts was asked to select a sample having an equivalent sweetness from among the 1st to 6th fructose samples (the concentration was not disclosed to the panel) regarding the sweetness of the 7th 5% fructose sample containing 60 ppm ERG."}, "[4]": {"type": "in vivo", "experimental": "as §1\nSamples (ERG0 to 10) were prepared by adding ergothioneine to 20% fructose samples to final concentrations of 0.5 ppm, 1 ppm, 3 ppm, 5 ppm, and 10 ppm.\nA drinking test by a panel of four experts was conducted on 20% fructose samples to which ERG was added at each concentration (the concentration was not disclosed to the panel), using a 20% fructose sample to which no ergothioneine was added as a control, and sweetness was sensorially evaluated.\nIn addition, samples (ERG0.5 to 900) were prepared by adding ergothioneine to 20% fructose samples to final concentrations of 0.5 ppm, 5 ppm, 10 ppm, 20 ppm, 40 ppm, 60 ppm, 80 ppm, 100 ppm, 200 ppm, 400 ppm, and 900 ppm.\nPairs combining 20% fructose samples containing different concentrations of ERG (for example, a pair of ERG 20 ppm and 40 ppm) were presented to the expert panel, and the panel evaluated which sample of the presented pair was perceived to be sweeter by a paired comparison test.", "remark": "listed apart in the source"}, "[5]": {"assay": "Test 9 (7): paired comparison test of sweetness, 12.5% glycine sample", "type": "in vivo", "details": "12.5% glycine samples", "protocol": "(§3) In the following Test 9, sensory evaluation was performed by a panel of three experts in the same paired comparison test as in Tests 3, 5, and 7.\nPairs combining a control 12.5% glycine sample and a 12.5% glycine sample containing ERG at each concentration were presented, and the panel evaluated which sample of the presented pair was perceived to be sweeter by a paired comparison test."}, "[6]": {"type": "in vivo", "details": "milk", "experimental": "as §1\nSamples of milk (EGR0.5 to 20) were prepared by adding ergothioneine to commercially available milk to final concentrations of 0.5 ppm, 1 ppm, 3 ppm, 5 ppm, 10 ppm, and 20 ppm.\nA drinking test by a panel of three experts was conducted on the milk to which ERG was added at each concentration (the concentration was not disclosed to the panel), using a milk to which no ergothioneine was added (ERG0) as a control, and the sweetness was sensorially evaluated by a paired comparison test."}, "[7]": {"assay": "Test 9 (3): paired comparison test of sweetness, 50% starch syrup sample", "type": "in vivo", "details": "50% starch syrup samples", "protocol": "as §3\nSamples were prepared by adding ERG to a 50% starch syrup sample of a highly saccharified reduced starch syrup rich in monosaccharide alcohols and disaccharide alcohols (SE 600, Bussan Food Science Co., Ltd.) to the ERG concentrations shown in Table 14 (ERG0 to 10). Pairs combining a control 50% starch syrup sample and a 50% starch syrup sample containing ERG at each concentration were presented, and the panel evaluated which sample of the presented pair was perceived to be sweeter by a paired comparison test."}, "[8]": {"type": "in vivo", "experimental": "Evaluation results of sweetness of test product compared with control • ∘: Sweetness was enhanced compared to the control. • ◇: Sweetness was similar to that of the control. […]\nA drinking test by a panel of three experts was conducted on the prepared soy milk to which ERG was added at each concentration (the concentration was not disclosed to the panel), using a prepared soy milk to which no ergothioneine was added (ERG0) as a control, and the sweetness was sensorially evaluated by a paired comparison test.", "remark": "listed apart in the source"}, "[9]": {"assay": "Test 5: sensory evaluation, selection of glucose sample of equivalent sweetness", "type": "in vivo", "details": "15% glucose sample containing 60 ppm ERG", "experimental": "Glucose was added to pure water to prepare glucose samples having six concentrations of 0%, 13%, 14%, 15%, 16%, and 17%; and as a seventh sample, a sample in which ergothioneine was added to 15% glucose to a final concentration of 60 ppm was prepared.\nSweetness was sensorially evaluated by the same expert panel of five trained sweetness-sensitive subjects as in Test 1. The panel of five experts was asked to select a sample having an equivalent sweetness from among the 1st to 6th glucose samples (the concentration was not disclosed to the panel) regarding the sweetness of the 7th 15% glucose sample containing 60 ppm ERG."}, "[10]": {"type": "in vivo", "details": "ERG added to water to a final concentration of 60 ppm; all the five panelists", "experimental": "In the same manner as in Test 1, sucrose samples having six concentrations of 0%, 1%, 1.5%, 2%, 2.5%, and 3%, and as a seventh sample, a sample in which ergothioneine was added to water to a final concentration of 60 ppm were prepared. A drinking test by the same expert panel of five as in Test 1 was conducted, and after tasting each sample and before tasting the next sample, the mouth was completely rinsed with water at room temperature, and sweetness was sensorially evaluated. The panel of five experts was asked to select a sample having an equivalent sweetness from among the 1st to 6th sucrose samples (the concentration was not disclosed to the panel) regarding the sweetness of the 7th sample."}, "[11]": {"assay": "Test 1: sensory evaluation by expert panel, selection of sucrose sample of equivalent sweetness", "type": "in vivo", "details": "2% sucrose sample containing 60 ppm ERG; all the five panelists", "experimental": "Sucrose was added to pure water to prepare sucrose samples having six concentrations of 0%, 1%, 1.5%, 2%, 2.5%, and 3%; and as a seventh sample, a sample in which purified ergothioneine (purity: 99.5% or more, Tetrahedron) was added to 2% sucrose to a final concentration of 60 ppm was prepared.\nThe sweetness was evaluated by a sensory evaluation by an expert panel consisting of five trained sweetness-sensitive subjects. The panel of five experts was asked to select a sample having an equivalent sweetness from among the 1st to 6th sucrose samples (the concentration was not disclosed to the panel) regarding the sweetness of the 7th 2% sucrose sample containing 60 ppm ERG. After tasting each sample and before tasting the next sample, the mouth was completely rinsed with water at room temperature."}}, "note": "Like-named read-outs stand apart in the source and are kept apart here.", "data": [{"smiles": "C[N+](C)(C)[C@@H](Cc1c[nH]c(=S)[nH]1)C(=O)[O-]", "note": "[ERG, Ergothioneine]", "values": [{"measurement": "ERG added at which all the panelists evaluated that the sweetness was enhanced", "setting": "[1]", "result": "≥ 0.5", "unit": "ppm"}, {"measurement": "ERG having a sweetness-enhancing effect, based on the glucose content", "setting": "[1]", "result": "≥ 0.0001", "unit": "% by weight"}, {"measurement": "ERG concentration at which the sweetness-enhancing effect became constant", "setting": "[2]; 10% glucose", "result": 60, "unit": "ppm"}, {"measurement": "ERG added at which all the panelists evaluated that the sweetness was enhanced", "setting": "[2]; 10% glucose solution", "result": "≥ 0.5", "unit": "ppm"}, {"measurement": "ERG having a sweetness-enhancing effect, based on the glucose content", "setting": "[2]; 10% glucose solution", "result": "≥ 0.0005", "unit": "% by weight"}, {"measurement": "fructose solution of equivalent sweetness", "setting": "[3]; three of the five panelists", "result": 5.5, "unit": "%"}, {"measurement": "fructose solution of equivalent sweetness", "setting": "[3]; two of the five panelists", "result": 5.25, "unit": "%"}, {"measurement": "ERG concentration at which the sweetness-enhancing effect became constant", "setting": "[4]; 20% fructose", "result": 80, "unit": "ppm"}, {"measurement": "ERG added at which all the panelists evaluated that the sweetness was enhanced", "setting": "[4]; 20% fructose samples", "result": "≥ 0.5", "unit": "ppm"}, {"measurement": "ERG having a sweetness-enhancing effect, based on the fructose content", "setting": "[4]; 20% fructose samples", "result": "≥ 0.0003", "unit": "% by weight"}, {"measurement": "ERG added at which all the panelists evaluated that the sweetness was enhanced", "setting": "[5]", "result": "≥ 0.5", "unit": "ppm"}, {"measurement": "ERG having a sweetness-enhancing effect, based on the glycine content", "setting": "[5]", "result": "≥ 0.0004", "unit": "% by weight"}, {"measurement": "ERG content at which all the panelists evaluated that the sweetness was enhanced", "setting": "[6]", "result": 5, "unit": "ppm"}, {"measurement": "ERG added at which all the panelists evaluated that the sweetness was enhanced", "setting": "[7]", "result": "≥ 0.5", "unit": "ppm"}, {"measurement": "ERG content at which all the panelists evaluated the enhancement of sweetness", "setting": "[8]; prepared soy milk", "result": 5, "unit": "ppm"}, {"measurement": "ERG content at which two panelists evaluated that the sweetness was enhanced", "setting": "[8]; prepared soy milk", "result": 3, "unit": "ppm"}, {"measurement": "creamy feel", "setting": "[8]; prepared soy milk containing 40 ppm of ERG", "result": "increased"}, {"measurement": "glucose solution of equivalent sweetness", "setting": "[9]; three of the five panelists", "result": 16, "unit": "%"}, {"measurement": "glucose solution of equivalent sweetness", "setting": "[9]; two of the five panelists", "result": 17, "unit": "%"}, {"measurement": "sucrose solution of equivalent sweetness", "setting": "[10]", "result": 0, "unit": "%"}, {"measurement": "sucrose solution of equivalent sweetness", "setting": "[11]", "result": 2.5, "unit": "%"}]}]}
